Where a name gives a salt, the structure may show the parent alone.
What was measured:
[1] = tested on: A2780S; test: Antiproliferative activity in human tumor cell lines (A2780S); format: cell-based; conditions: A2780S ovarian tumor cell line
Method: (§1) PROTOCOLS 1, 2, and 3 are described in greater detail hereinbelow. In general, according to PROTOCOLS 1 and 2, the target ABAE and/or Human Tumor cells are exposed to the compound of Formula I for 48 hours. PROTOCOL 3 exposes ABAE cells to the compounds for 4 days. A detailed description of the protocol is as follows:
(§2) The antiproliferative activity of the compounds of Formula I of the present invention is evaluated in a panel comprised of human tumor cell lines and an adult bovine aortic endothelial cell line (ABAE). The human tumor cell lines are from
Cultures are renewed after 20 passages with cells from a fresh stock of batch-frozen early passage cells. Cell lines are routinely checked for mycoplasma contamination (Genprobe). In a laminar flow hood, cells (1-5×10^4) are plated into 96-well microtiter plates in a volume of 0.1 ml/well with a bulk microtiter dispenser (Denley). […] Compounds are added using a Tomtec dispenser which simultaneously dispenses from one 96-well plate, containing the drug dilutions, to the plates containing the cells. After two days of continuous drug exposure, 50% cold trichloroacetic acid (TCA) is added to 10% final concentration to fix the cells, and after 60 minutes at 4° C., the TCA is aspirated and the plates are washed 5 times with deionized water using a microtiter plate washer. […] A 0.4% solution of the dye, sulforhodamine B, in […] is added to the plates, and the plates are washed 5 times with 1% glacial acetic acid using the automatic plate washed. The bound stain is solubilized with 0.1 ml of 10 mM Tris base. The optical densities are read from an automatic spectrophotometric plate reader (Dynatech) directly to a main frame computer (VAX 8600).
(§3) Positive controls, that include standard chemotherapeutic drugs (i.e., adriamycin, cisplatin, etc.), are included in every experiment.
(§4) Background optical density measurements (complete media-cells, and complete media+drug-cells) are automatically subtracted from the appropriate control and test wells. Mean values and standard errors are determined from duplicate wells. A measure is also made of the optical density at time when the drugs are added. The number of cells after treatment (P), as % of control, is calculated for every concentration of drug, as follows: [formula] wherein: T is optical density measurement for treated cells after 48 hours;
(§5) C is optical density measurement for untreated cells after 48 hours;
(§6) Co is optical density measurement for cells at the time of drug addition.
(§7) IC50 of growth inhibition is calculated from the sets of P values using the RS-1 data package (BBN Software).
(§8) Antiproliferative Activity in Human Tumor Cell Lines
(§9) The antiproliferative activity of the compounds of Formula I is evaluated in the panel comprised of human tumor cell lines as listed in PROTOCOL 1. This assay is a slight modification of PROTOCOL 1. The modifications include:
(§10) 1) each concentration for each compound is tested in a single well;
(§11) 2) compounds are tested at 20, 4, 0.8, 0.16 microgram/ml and additionally in some experiments at 100 and 0.32 microgram/ml;
(§12) 3) samples are pipetted into a 96-well plate for each of the cell lines by a Beckman Biomek 1000 SL robot;
(§13) 4) after fixing with TCA each well is washed with 0.35 ml distilled water twice, not five times;
(§14) 5) after staining with sulforhodamine B each well is washed 3 times, not five times;
6) the growth inhibition (I) as % of control, is calculated using the RS-1 data package (BBN Software), for every concentration of drug, as follows: [formula] wherein: T is optical density measurement for treated cells after 48 hours;
7) IC50 of growth inhibition is determined graphically from dose response curves, as is known in the art.

[2] = tested on: SW620; test: Antiproliferative activity in human tumor cell lines (SW620); format: cell-based; conditions: SW-620, SW620 colon tumor cell line
Method: as §1, §2
All cell lines are maintained in log phase in RPMI 1640 media, supplemented with 5% fetal calf serum, penicillin/streptomycin and 2 mM L-glutamine. Cultures are renewed after 20 passages with cells from a fresh stock of batch-frozen early passage cells. Cell lines are routinely checked for mycoplasma contamination (Genprobe). In a laminar flow hood, cells (1-5×10^4) are plated into 96-well microtiter plates in a volume of 0.1 ml/well with a bulk microtiter dispenser (Denley). […] At this concentration, dimethylsulfoxide has no effect on cell growth. Compounds are added using a Tomtec dispenser which simultaneously dispenses from one 96-well plate, containing the drug dilutions, to the plates containing the cells. After two days of continuous drug exposure, 50% cold trichloroacetic acid (TCA) is added to 10% final concentration to fix the cells, and after 60 minutes at 4° C., the TCA is aspirated and the plates are washed 5 times with deionized water using a microtiter plate washer. The number of cells on the plate are quantitated using a protein dye-binding assay (Monks et al., 1991). A 0.4% solution of the dye, sulforhodamine B, in glacial acetic acid is added to the plates, and the plates are washed 5 times with 1% glacial acetic acid using the automatic plate washed. The bound stain is solubilized with 0.1 ml of 10 mM Tris base. The optical densities are read from an automatic spectrophotometric plate reader (Dynatech) directly to a main frame computer (VAX 8600).
as §3, §4, §5, §6, §7, §8, §9, §10, §11, §12, §13, §14
6) the growth inhibition (I) as % of control, is calculated using the RS-1 data package (BBN Software), for every concentration of drug, as follows: [formula] wherein: T is optical density measurement for treated cells after 48 hours; […]

CN(C)CC(=O)Nc1cc(N(C)C)c2c(c1O)C(=O)C1=C(O)[C@]3(O)C(=O)C(C(N)=O)=C(O)[C@@H](N(C)C)C3CC1C2 (stereo partly drawn) [Example 2, [4S-(4a,12aa-1-4,7-Bis(dimethylamino)-9-[[(dimethylamino)acetyl]amino]]-1,4,,4a,5,5a,6,11,12a-octahvdro-3,10,12,12a-tetrahydroxy-1,11-dioxo-2-napththacenecarboxamidedihydrochloride]
IC50 [1]: 6.5 µg/mL
IC50 [2]: 5.6 µg/mL

CCCCCCNCC(=O)Nc1cc(N(C)C)c2c(c1O)C(=O)C1=C(O)[C@]3(O)C(=O)C(C(N)=O)=C(O)[C@@H](N(C)C)C3CC1C2 (stereo partly drawn) [Example 4, [4S-(4α,12aα)]-4,7-Bis(dimethylamino)-9-[(hexylamino)acetyl]amino]-1,4,4a,5,5a,6,11,12a-octahydro-3,10,12,12a-tetrahydroxy-1,11-dioxo-2-naphthacenecarboxamide dihydrochloride]
IC50 [1]: 2.3 µg/mL
IC50 [2]: 2.7 µg/mL

CCCCCCCNCC(=O)Nc1cc(N(C)C)c2c(c1O)C(=O)C1=C(O)[C@]3(O)C(=O)C(C(N)=O)=C(O)[C@@H](N(C)C)C3CC1C2 (stereo partly drawn) [Example 5, [4S-(4α,12aα)]-4,7-Bis(dimethylamino)-9-[[(heptylamino)acetyl]amino]-1,4,4a,5,5a,6,11,12a-octahydro-3,10,12,12a-tetrahydroxy-1,11-dioxo-2-naphthacenecarboxamide dihydrochloride]
IC50 [1]: 2.5 µg/mL
IC50 [2]: 2.4 µg/mL

Reference: patent US5843925A, “Methods for inhibiting angiogenesis, proliferation of endothelial or tumor cells and tumor growth” (American Cyanamid Company, priority 1994, dated 1998)
